The values that follow come from US8796273B2, “Compound for the treatment of enteroviruses” (priority 2010, dated 2014).

In general, EC50 refers to the concentration needed to bring the measured effect to its halfway point.

The subject of assay [1] is Poliovirus 1 (PV1). Briefly: microbe, parasite or virus in culture. Conditions: Enterovirus C, read-out: EC50, replication of Poliovirus 1 (PV1). It is filed as cell-based, Human enterovirus C.
The test system of assay [2] is Enterovirus 71 (EV71). Briefly: microbe, parasite or virus in culture. Conditions: Enterovirus A, EV71, read-out: EC50, replication of Enterovirus 71 (EV71). It is filed as cell-based, Human enterovirus A.

For `COc1ccc(OCc2ccc(COc3c(Cl)cccc3Cl)cc2)c(Cl)c1` [Compound V-073, V-073], the EC50 was 26 ± 23 nM in assay [1] and greater than 300000 nM in assay [2].
As to `CC(C)S(=O)(=O)n1c(N)nc2ccc(/C(=N/O)c3ccccc3)cc21` [Enviroxime], the EC50 in assay [1] worked out at 790 ± 130 nM; in assay [2], 450 ± 120 nM.
As for `Cc1cc(CCCOc2c(C)cc(-c3noc(C(F)(F)F)n3)cc2C)on1` [Pleconaril], the EC50 in assay [1] and in assay [2] was greater than 300000 nM in each case.
As for `CCOC(=O)/C=C/[C@H](C[C@@H]1CCNC1=O)NC(=O)[C@@H](CC(=O)[C@@H](NC(=O)c1cc(C)on1)C(C)C)Cc1ccc(F)cc1` [Rupintrivir], the results for the EC50 in assay [1] and in assay [2] were 4500 ± 360 nM and 900 ± 70 nM, respectively.
